Consider 10 compounds from PMC10380083, “Synthesis of Prostate-Specific Membrane Antigen-Targeted Bimodal Conjugates of Cytotoxic Agents and Antiandrogens and Their Comparative Assessment with Monoconjugates” (International Journal of Molecular Sciences, 2023).

*1 amine or outer side, *2 acyl side, *3 side chain or, on linkers, in order; H or OH if unused. Where a SMILES comes first, the peptide text is derived from it. [ ]: non-standard residue; d: D form. The star is where a group is joined. GluureaLys(ε-3-ClBenzyl) = O=C(O)CC[C@H](NC(=O)N[C@@H](CCCCN(Cc1cccc(Cl)c1)*)C(=O)O)C(=O)O; X5 = O=C(O)CC[C@H](NC(=O)N[C@@H](CCCCN(Cc1ccc(C(=O)O)cc1)*)C(=O)O)C(=O)O; X6 = O=C(O)CC[C@H](NC(=O)N[C@@H](CCCCN(Cc1ccc(Br)cc1)*)C(=O)O)C(=O)O; Dolaproine = CO[C@@H]([C@@H]1CCCN1)[C@@H](C)C(=O)O; Dil = CC[C@H](C)[C@H](NC)[C@@H](CC(=O)O)OC; X2 = O=C(CCCc1cn(CCCN[*:1])nn1)[*:2]; PABC = O=C(OCc1ccc(N[*:1])cc1)[*:2]; X1 = C[C@@H](N*)[C@@H](O)c1ccccc1; Cit = NC(=O)NCCC[C@H](N)C(=O)O; Suc = O=C(CCC(=O)[*:2])[*:1]; NMeV = CN[C@H](C(=O)O)C(C)C; Ahx = NCCCCCC(=O)O Some results are limits rather than exact numbers.

Data set [1] deals with T1, PSMA (glutamate carboxypeptidase II, GCPII) (Homo sapiens, UniProt Q04609).
T1 construct: endogenous in cells; host or cells: LNCaP cells (Triton X-100 lysate, sonicated, supernatant after 1000g)
Nature of the data set: Inhibition of the NAAG cleavage reaction (affinity to PSMA), LNCaP cell extract. In kind it is biochemical. To be noted: SD. As to the method: The affinity of the four newly obtained ligands to PSMA was evaluated in vitro by inhibiting the cleavage of N-acetylaspartylglutamic acid (NAAG). One function of PSMA, also known as glutamate carboxypeptidase II (GCPII), is the cleavage of NAAG into N-acetylaspartate and glutamate. PSMA-specific ligands inhibit this reaction by interacting with the protein. Thus, the calculation of the values of half-maximum inhibition (IC50) allows evaluation of the binding efficiency of the synthesized compounds to the protein. The analogues of the obtained ligands 6a–d without a lysine residue in their structure were chosen as comparison ligands. Also, some ligands previously described in the literature were chosen as references.
LNCaP cells were cultured in RPMI medium with 10% FBS (Gibco, Billings, MT, USA), 1xGlutamax (Gibco) and 1x penicillin-streptomycin mixture (Gibco, USA). To suspend the cells, growth medium was removed from the 25 cm^2 vial, the cells were washed with PBS buffer and incubated for 5 min with 0.25% trypsin (1 mL). Trypsin was inactivated with complete growth medium (2 mL), washed with PBS, transferred 10^6 cells to a test tube, and 500 μL of lysis buffer (0.5% Triton X-100, 50 mM Tris-HCl (pH 7.5) and 1× Proteinase Inhibition cocktail) was added. The suspension was incubated for 30 min on ice and sonicated (seven times 7 sec at 20–30 s intervals) on ice to avoid overheating. The suspension was centrifuged for 10 min at 1000g at 4 °C, and the supernatant was used in further analysis.
The inhibition by PSMA ligands was analyzed using a non-radioactive protocol with detection of the glutamate released during the reaction. LNCaP cell line extract (10 μL) was mixed with 2 μL of the appropriate compound preparation. A series of dilutions of 2 nM-100 μM compounds was used for initial testing, with dilution steps of 3–5 times. To the resulting mixture, 1 μL of 100 μM NAAG solution was added. The mixture was incubated for 2 h at 37 °C. After incubation, the mixture was doubled with reaction buffer (13 μL) from the Amplex Red Glutamic Acid Kit (Molecular Probes Inc., Eugene, OR, USA), and the multi-component glutamate detection reaction mixture prepared according to the manufacturer’s protocol (26 μL) was added. Amplex Red stock solution: 5 μL Amplex® Red reagent stock solution, 1.25 μL HRP stock solution, 8 μL L-glutamate oxidase, 2.5 μL L-glutamate pyruvate transaminase, 0.5 μL L-alanine, 483 μL 1× reaction buffer. Incubation was performed for 1 h at 37 °C. The fluorescence of resorufin produced by conjugated glutamate detection kit reactions was detected on a VICTORX5 multidetector plate (Perkin Elmer Inc., Waltham, MA, USA) at an excitation length of 555 nm and detection at 580 nm. As a control for endogenous glutamate levels with replacement of the NAAG solution with water.

In data set [2] the test system is 22Rv1 cells. Nature of the data set: In vitro cytotoxicity, MTS assay, 22Rv1. In kind it is cell-based, human. Particulars: 72 h, moderate PSMA expression, range 0.5 to 800 nM, triplicates. The procedure: (§1) The resulting bimodal conjugates were tested in vitro on three different PCa cell lines. We used LNCaP cells with high PSMA expression, 22Rv1 cells with moderate PSMA expression and PC-3 cells with extremely low PSMA expression. Different levels of PSMA expression in 22Rv1 and LNCaP cell lines allows evaluation of the effect of the level of expression on the toxicity of the target drugs. PSMA-negative cell line PC-3 allows a qualitative assessment of non-specific toxicity of the obtained compounds.
(§2) The cytotoxicity of the investigated substances was tested using the MTS assay with some modifications. Cells were seeded in the 96-well plates (Corning, New York, NY, USA) at concentration of 7000 cells per well for PC-3 culture, 12,000 cells per well for LNCaP cells and 20,000 cells per well for 22Rv1 line. The cells were counted using the automatic cell counter EVE. All cell lines were purchased from the American Type Culture Collection (ATCC, Manassas, VA, USA). After 1 day, serial dilutions of tested substances were added to the cells. Cell culture medium with addition of DMSO in appropriate concentrations was used as a negative control. DMSO (30%) was added in culture medium as a positive control. Cells were then incubated during 72 h at 37 °C and 5% CO2. Later, the culture medium from each well was removed and 20 μL of MTS reagent (CellTiter 96 AQueous Non-Radioactive Cell Proliferation Assay, Promega) were added to each well with 100 μL of new culture medium. After 4 h incubation at 37 °C in darkness, the absorbance of the solution was measured at 490 nm wavelength using Thermo Scientific Multiskan GO spectrometer. Cell viability was calculated as a percentage compared to control cells. The absorbance of MTS reagent in culture medium without cells was taken as zero. […] Experiments were performed in triplicates. Data were analyzed using Prism 9—GraphPad version 9.2.0 software. p values < 0.05 were considered significant.
On the technique in general: Tetrazolium assays rely on reduction of a dye to a coloured formazan, in cell work by metabolically active cells.

Data set [3] concerns LNCaP cells. Nature of the data set: In vitro cytotoxicity, MTS assay, LNCaP. In kind it is cell-based. Particulars: 72 h, high PSMA expression, range 0.5 to 800 nM, triplicates. The procedure: as §1, §2
Data set [4] has as its system PC-3 cells. The experiment in a line: In vitro cytotoxicity, MTS assay, PC-3. In kind it is cell-based, human. Particulars: 72 h, extremely low PSMA expression, range 0.5 to 800 nM, triplicates. As to the method:
as §1, §2

Where [5] appears, read: inhibition of NAAG cleavage, LNCaP cell extract, 2 h at 37 °C, glutamate detected with Amplex Red kit (fluorescence).

The IC50 is the point on the concentration scale where inhibition reaches its midpoint. Lower therefore signals greater potency.

T1 sequence (Q04609 whole entry): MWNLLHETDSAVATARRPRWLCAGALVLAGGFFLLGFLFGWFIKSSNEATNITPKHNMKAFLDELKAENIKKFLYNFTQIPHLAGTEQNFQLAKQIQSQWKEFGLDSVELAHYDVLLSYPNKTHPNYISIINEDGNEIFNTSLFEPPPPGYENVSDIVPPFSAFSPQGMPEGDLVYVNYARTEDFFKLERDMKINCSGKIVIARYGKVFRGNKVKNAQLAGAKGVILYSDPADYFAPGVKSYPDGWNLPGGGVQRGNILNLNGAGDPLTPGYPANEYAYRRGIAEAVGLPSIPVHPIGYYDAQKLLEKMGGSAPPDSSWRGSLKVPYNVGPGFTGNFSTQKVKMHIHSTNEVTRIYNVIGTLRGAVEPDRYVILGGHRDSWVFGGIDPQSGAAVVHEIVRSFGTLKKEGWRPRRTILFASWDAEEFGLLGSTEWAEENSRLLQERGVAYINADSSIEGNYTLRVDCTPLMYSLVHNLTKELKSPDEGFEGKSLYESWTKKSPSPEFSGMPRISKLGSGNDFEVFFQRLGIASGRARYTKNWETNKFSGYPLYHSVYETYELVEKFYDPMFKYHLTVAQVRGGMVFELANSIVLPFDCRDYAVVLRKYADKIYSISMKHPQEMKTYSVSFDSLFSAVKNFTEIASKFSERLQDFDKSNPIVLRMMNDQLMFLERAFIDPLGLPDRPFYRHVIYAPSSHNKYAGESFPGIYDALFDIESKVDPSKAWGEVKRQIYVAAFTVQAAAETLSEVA

In the case of `[N-]=[N+]=NCCCNC(=O)[C@H](CCCCN)NC(=O)[C@H](Cc1ccc(O)cc1)NC(=O)[C@H](Cc1ccccc1)NC(=O)CCC(=O)NCCCCCC(=O)N(CCCC[C@H](NC(=O)N[C@@H](CCC(=O)O)C(=O)O)C(=O)O)Cc1cccc(Cl)c1` [6a, (3S,7S,25S,28S,31S)-31-(4-aminobutyl)-36-azido-25-benzyl-12-(3-chlorobenzyl)-28-(4-hydroxybenzyl)-5,13,20,23,26,29,32-heptaoxo-4,6,12,19,24,27,30,33-octaazahexatriacontane-1,3,7-tricarboxylic acid], 0.013 ± 0.003 µM corresponded to half-maximal inhibition in data set [1] (IC50).
On to `[N-]=[N+]=NCCCNC(=O)[C@H](CCCCN)NC(=O)[C@H](Cc1ccc(O)cc1)NC(=O)[C@H](Cc1ccccc1)NC(=O)CCC(=O)NCCCCCC(=O)N(CCCC[C@H](NC(=O)N[C@@H](CCC(=O)O)C(=O)O)C(=O)O)Cc1ccc(Br)cc1` [6b, (3S,7S,25S,28S,31S)-31-(4-aminobutyl)-36-azido-25-benzyl-12-(4-bromobenzyl)-28-(4-hydroxybenzyl)-5,13,20,23,26,29,32-heptaoxo-4,6,12,19,24,27,30,33-octaazahexatriacontane-1,3,7-tricarboxylic acid], for which half-maximal inhibition in data set [1] (IC50) was put at 0.011 ± 0.002 µM.
As to `[N-]=[N+]=NCCCNC(=O)[C@H](CCCCN)NC(=O)[C@H](Cc1ccc(O)cc1)NC(=O)[C@H](Cc1ccccc1)NC(=O)CCC(=O)NCCCCCC(=O)N(CCCC[C@H](NC(=O)N[C@@H](CCC(=O)O)C(=O)O)C(=O)O)Cc1ccc(C(=O)O)cc1` [6c, (3S,7S,25S,28S,31S)-31-(4-aminobutyl)-36-azido-25-benzyl-12-(4-carboxybenzyl)-28-(4-hydroxybenzyl)-5,13,20,23,26,29,32-heptaoxo-4,6,12,19,24,27,30,33-octaazahexatriacontane-1,3,7-tricarboxylic acid], the IC50 in data set [1] (setting [5]) stood at 0.01 ± 0.003 µM.
The compound `[N-]=[N+]=NCCCNC(=O)[C@H](CCCCN)NC(=O)[C@H](Cc1ccccc1)NC(=O)[C@H](Cc1ccccc1)NC(=O)CCC(=O)NCCCCCC(=O)N(CCCC[C@H](NC(=O)N[C@@H](CCC(=O)O)C(=O)O)C(=O)O)Cc1ccc(C(=O)O)cc1` [6d, (3S,7S,25S,28S,31S)-31-(4-aminobutyl)-36-azido-25,28-dibenzyl-12-(4-carboxybenzyl)-5,13,20,23,26,29,32-heptaoxo-4,6,12,19,24,27,30,33-octaazahexatriacontane-1,3,7-tricarboxylic acid] returned an IC50 in data set [1] (setting [5]) of 0.0055 ± 0.0017 µM.
With `CC[C@H](C)[C@@H]([C@@H](CC(=O)N1CCC[C@H]1[C@H](OC)[C@@H](C)C(=O)N[C@H](C)[C@@H](O)c1ccccc1)OC)N(C)C(=O)[C@@H](NC(=O)[C@H](C(C)C)N(C)C(=O)OCc1ccc(NC(=O)[C@H](CCCNC(N)=O)NC(=O)[C@@H](NC(=O)CCCc2cn(CCCNC(=O)[C@H](CCCCN)NC(=O)[C@H](Cc3ccc(O)cc3)NC(=O)[C@H](Cc3ccccc3)NC(=O)CCC(=O)NCCCCCC(=O)N(CCCC[C@H](NC(=O)N[C@@H](CCC(=O)O)C(=O)O)C(=O)O)Cc3cccc(Cl)c3)nn2)C(C)C)cc1)C(C)C` [12a] ({GluureaLys(ε-3-ClBenzyl)-Ahx-Suc}-FYK[X2]V[Cit][PABC][NMeV]V[Dil][Dolaproine]-X1), in data set [2], the “CC50, 22Rv1” value was 0.2679 ± 0.0038 µM. Moreover, the “CC50, LNCaP” value in data set [3] was 0.1574 ± 0.002 µM. In addition, the “CC50, PC-3” value in data set [4] was above 0.8 µM.
Taken in the same sequence, the figures for `CC[C@H](C)[C@@H]([C@@H](CC(=O)N1CCC[C@H]1[C@H](OC)[C@@H](C)C(=O)N[C@H](C)[C@@H](O)c1ccccc1)OC)N(C)C(=O)[C@@H](NC(=O)[C@H](C(C)C)N(C)C(=O)OCc1ccc(NC(=O)[C@H](CCCNC(N)=O)NC(=O)[C@@H](NC(=O)CCCc2cn(CCCNC(=O)[C@H](CCCCN)NC(=O)[C@H](Cc3ccc(O)cc3)NC(=O)[C@H](Cc3ccccc3)NC(=O)CCC(=O)NCCCCCC(=O)N(CCCC[C@H](NC(=O)N[C@@H](CCC(=O)O)C(=O)O)C(=O)O)Cc3ccc(Br)cc3)nn2)C(C)C)cc1)C(C)C` [12b] ({X6-Ahx-Suc}-FYK[X2]V[Cit][PABC][NMeV]V[Dil][Dolaproine]-X1) were 0.2478 ± 0.0033 µM, 0.1826 ± 0.0022 µM and above 0.8 µM.
Taken in the same sequence, the figures for `CC[C@H](C)[C@@H]([C@@H](CC(=O)N1CCC[C@H]1[C@H](OC)[C@@H](C)C(=O)N[C@H](C)[C@@H](O)c1ccccc1)OC)N(C)C(=O)[C@@H](NC(=O)[C@H](C(C)C)N(C)C(=O)OCc1ccc(NC(=O)[C@H](CCCNC(N)=O)NC(=O)[C@@H](NC(=O)CCCc2cn(CCCNC(=O)[C@H](CCCCN)NC(=O)[C@H](Cc3ccc(O)cc3)NC(=O)[C@H](Cc3ccccc3)NC(=O)CCC(=O)NCCCCCC(=O)N(CCCC[C@H](NC(=O)N[C@@H](CCC(=O)O)C(=O)O)C(=O)O)Cc3ccc(C(=O)O)cc3)nn2)C(C)C)cc1)C(C)C` [12c] ({X5-Ahx-Suc}-FYK[X2]V[Cit][PABC][NMeV]V[Dil][Dolaproine]-X1) were 0.4537 ± 0.0098 µM, 0.1778 ± 0.0022 µM and above 0.8 µM.
On the same counts, the results for `CC[C@H](C)[C@@H]([C@@H](CC(=O)N1CCC[C@H]1[C@H](OC)[C@@H](C)C(=O)N[C@H](C)[C@@H](O)c1ccccc1)OC)N(C)C(=O)[C@@H](NC(=O)[C@H](C(C)C)N(C)C(=O)OCc1ccc(NC(=O)[C@H](CCCNC(N)=O)NC(=O)[C@@H](NC(=O)CCCc2cn(CCCNC(=O)[C@H](CCCCN)NC(=O)[C@H](Cc3ccccc3)NC(=O)[C@H](Cc3ccccc3)NC(=O)CCC(=O)NCCCCCC(=O)N(CCCC[C@H](NC(=O)N[C@@H](CCC(=O)O)C(=O)O)C(=O)O)Cc3ccc(C(=O)O)cc3)nn2)C(C)C)cc1)C(C)C` [12d] ({X5-Ahx-Suc}-FFK[X2]V[Cit][PABC][NMeV]V[Dil][Dolaproine]-X1) are 0.4633 ± 0.008 µM, 0.1978 ± 0.0027 µM and above 0.8 µM.
`NCCCC[C@H](NC(=O)N[C@@H](CCC(=O)O)C(=O)O)C(=O)O` [DCL, (S)-2-(3-((S)-5-amino-1-carboxypentyl)ureido)pentanedioic acid, reference compound] showed an IC50 in data set [1] (setting [5]) of 0.547 ± 0.389 µM.
For `C[C@]12CC[C@H](OC(=O)CCCc3cn(CCCNC(=O)[C@H](Cc4ccc(O)cc4)NC(=O)[C@H](Cc4ccccc4)NC(=O)CCC(=O)NCCCCCC(=O)N(CCCC[C@H](NC(=O)N[C@@H](CCC(=O)O)C(=O)O)C(=O)O)Cc4cccc(Cl)c4)nn3)CC1=CC[C@@H]1[C@@H]2CC[C@]2(C)C(c3cccnc3)=CC[C@@H]12` [II, reference compound], the “CC50, 22Rv1” value in data set [2] is above 0.8 µM. Further, in data set [3], the “CC50, LNCaP” value is above 0.8 µM. Also, the “CC50, PC-3” value in data set [4] is above 0.8 µM.
